Usually Kd stands for the constant that tells how readily two partners part at equilibrium. A lower Kd goes with a tighter complex.

In one test the target is T1, βarr2L69C-BIM (Homo sapiens, UniProt P32121, C126S/C141L/C151V/C17S/C243V/C252V/C270S/C409S/C60V/L69C).
T1 construct: gene ARRB2; Cys-less full-length βarr2 with L69C in finger loop, labelled with monobromobimane at C69; E. coli NiCo21(DE3), pET-15b; N-terminal 6xHis-3C removed by 3C protease, GG-AviTag-GGSGGS linker kept
Description: bimane fluorescence titration, single-site fit. The test is classed as binding. The source says:
bimane fluorescence titration, single-site fit on βarr2L69C-BIM | PIP3 binds βarr2 with higher affinity than PIP2 and induces a conformational change | Like PIP2 and V2Rpp, PIP3 induced a concentration-dependent increase in bimane fluorescence

Test [1] has as its target PTH type 1 receptor C-terminally fused to monomeric NeonGreen (PTH1R^mNG) (human) (UniProt Q03431).

T1 sequence (P32121 whole entry C17S/C60V/L69C/C126S/C141L/C151V/C243V/C252V/C270S/C409S): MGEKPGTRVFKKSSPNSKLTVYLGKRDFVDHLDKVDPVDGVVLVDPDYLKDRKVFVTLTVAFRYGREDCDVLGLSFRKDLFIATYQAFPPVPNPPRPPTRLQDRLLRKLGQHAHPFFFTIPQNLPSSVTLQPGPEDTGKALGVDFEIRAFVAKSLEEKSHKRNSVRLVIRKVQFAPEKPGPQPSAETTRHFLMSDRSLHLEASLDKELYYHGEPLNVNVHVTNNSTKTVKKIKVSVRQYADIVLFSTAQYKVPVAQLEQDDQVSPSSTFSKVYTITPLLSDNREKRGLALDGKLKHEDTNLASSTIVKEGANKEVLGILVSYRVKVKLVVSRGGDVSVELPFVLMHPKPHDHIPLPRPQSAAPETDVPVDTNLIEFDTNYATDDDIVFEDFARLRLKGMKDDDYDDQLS
Chain of PTH type 1 receptor C-terminally fused to monomeric NeonGreen (PTH1R^mNG) (human) (Q03431 27-593): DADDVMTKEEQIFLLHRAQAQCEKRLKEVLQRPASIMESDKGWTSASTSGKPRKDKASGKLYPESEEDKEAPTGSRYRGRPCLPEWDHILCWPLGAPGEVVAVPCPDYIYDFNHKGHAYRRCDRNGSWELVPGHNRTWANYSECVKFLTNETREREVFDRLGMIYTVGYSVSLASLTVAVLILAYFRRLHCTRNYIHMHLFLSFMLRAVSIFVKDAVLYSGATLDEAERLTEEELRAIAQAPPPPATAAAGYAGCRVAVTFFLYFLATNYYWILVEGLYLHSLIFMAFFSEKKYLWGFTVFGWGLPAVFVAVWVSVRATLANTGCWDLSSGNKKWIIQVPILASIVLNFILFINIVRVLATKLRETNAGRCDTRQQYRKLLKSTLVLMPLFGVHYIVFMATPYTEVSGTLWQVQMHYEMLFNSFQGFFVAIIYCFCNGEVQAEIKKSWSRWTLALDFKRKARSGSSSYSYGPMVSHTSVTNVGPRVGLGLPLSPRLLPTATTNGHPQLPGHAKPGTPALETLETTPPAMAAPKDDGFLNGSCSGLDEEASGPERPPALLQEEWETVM

The molecule `CCCCCCCC(=O)OC[C@H](COP(=O)(O)O[C@@H]1[C@H](O)[C@H](O)[C@@H](OP(=O)(O)O)[C@H](OP(=O)(O)O)[C@H]1O)OC(=O)CCCCCCC` [di-C8-PI(4,5)P2] came in with an equilibrium dissociation constant (Kd) at βarr2L69C-BIM of 64.8 ± 16.8 µM.

`CCCCCCCC(=O)OC[C@H](COP(=O)(O)O[C@H]1[C@H](O)[C@@H](OP(=O)(O)O)[C@H](OP(=O)(O)O)[C@@H](OP(=O)(O)O)[C@H]1O)OC(=O)CCCCCCC` [diC8-PI(3,4,5)P3] came in with a dissociation constant (Kd) on βarr2L69C-BIM of 15.5 ± 2.6 µM.

On to “PTH(1-34) labeled in position 13 with tetramethylrhodamine (PTH^TMR) (peptide)”, for which the average diffusion coefficient (D) of PTH1R^mNG molecules in the presence of PTH^TMR (0.088 µm^2/s in the absence of the ligand), single-molecule tracking in test [1] was determined as 0.02 µm^2/s.

The values are drawn from paper PMC11615292, “Fast-diffusing receptor collisions with slow-diffusing peptide ligand assemble the ternary parathyroid hormone–GPCR–arrestin complex” (Nature Communications, 2024).
